According to paper PMC4336625 (ACS Chemical Biology, 2014):

How the values were obtained:
[1] = biological target: recombinant human NAPE-PLD (Homo sapiens, UniProt Q6IQ20); experiment: NAPE-PLD activity assay; assay type: biochemical; conditions: 20 μM
PldA = PldA (Pseudomonas aeruginosa, UniProt Q9HYC2); assay type: biochemical
PLD1 [2] = biological target: T1, PLD1 (Homo sapiens, UniProt Q13393); assay type: cell-based; conditions: read-out: mammalian PLD1 IC50
T1 sequence (Q13393 1-1074): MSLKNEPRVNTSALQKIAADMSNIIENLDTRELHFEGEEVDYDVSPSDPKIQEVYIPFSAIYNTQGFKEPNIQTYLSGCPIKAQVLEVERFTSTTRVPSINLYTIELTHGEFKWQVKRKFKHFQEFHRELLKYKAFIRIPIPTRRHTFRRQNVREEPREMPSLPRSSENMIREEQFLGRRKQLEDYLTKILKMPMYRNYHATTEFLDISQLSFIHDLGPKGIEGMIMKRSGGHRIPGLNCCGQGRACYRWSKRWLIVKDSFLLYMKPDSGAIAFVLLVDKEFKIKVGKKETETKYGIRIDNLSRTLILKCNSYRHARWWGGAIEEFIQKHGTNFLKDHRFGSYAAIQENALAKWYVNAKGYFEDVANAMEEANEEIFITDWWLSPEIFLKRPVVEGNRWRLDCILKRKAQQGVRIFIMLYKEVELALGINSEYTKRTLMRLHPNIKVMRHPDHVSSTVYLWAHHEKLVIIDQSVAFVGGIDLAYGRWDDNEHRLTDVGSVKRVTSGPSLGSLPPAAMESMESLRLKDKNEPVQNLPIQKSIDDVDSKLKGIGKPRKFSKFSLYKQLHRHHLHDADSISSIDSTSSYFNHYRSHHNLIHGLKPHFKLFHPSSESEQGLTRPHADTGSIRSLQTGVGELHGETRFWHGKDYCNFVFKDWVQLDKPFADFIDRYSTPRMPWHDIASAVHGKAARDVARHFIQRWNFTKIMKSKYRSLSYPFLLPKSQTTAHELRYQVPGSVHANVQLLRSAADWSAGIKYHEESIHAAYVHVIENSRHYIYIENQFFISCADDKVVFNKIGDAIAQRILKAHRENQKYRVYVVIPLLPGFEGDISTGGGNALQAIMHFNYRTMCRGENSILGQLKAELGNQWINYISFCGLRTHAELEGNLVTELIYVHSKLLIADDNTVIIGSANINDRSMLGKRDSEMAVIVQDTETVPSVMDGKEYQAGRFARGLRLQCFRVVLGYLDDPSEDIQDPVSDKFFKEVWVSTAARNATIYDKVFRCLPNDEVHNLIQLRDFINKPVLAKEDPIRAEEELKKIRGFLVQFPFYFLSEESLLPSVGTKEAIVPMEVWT

PLD1 [3] = biological target: T1, PLD1; conditions: cited from earlier work
PLD2 = PLD2 (Homo sapiens, UniProt O14939); conditions: cited from earlier work
PLD2, sequence (O14939 whole entry): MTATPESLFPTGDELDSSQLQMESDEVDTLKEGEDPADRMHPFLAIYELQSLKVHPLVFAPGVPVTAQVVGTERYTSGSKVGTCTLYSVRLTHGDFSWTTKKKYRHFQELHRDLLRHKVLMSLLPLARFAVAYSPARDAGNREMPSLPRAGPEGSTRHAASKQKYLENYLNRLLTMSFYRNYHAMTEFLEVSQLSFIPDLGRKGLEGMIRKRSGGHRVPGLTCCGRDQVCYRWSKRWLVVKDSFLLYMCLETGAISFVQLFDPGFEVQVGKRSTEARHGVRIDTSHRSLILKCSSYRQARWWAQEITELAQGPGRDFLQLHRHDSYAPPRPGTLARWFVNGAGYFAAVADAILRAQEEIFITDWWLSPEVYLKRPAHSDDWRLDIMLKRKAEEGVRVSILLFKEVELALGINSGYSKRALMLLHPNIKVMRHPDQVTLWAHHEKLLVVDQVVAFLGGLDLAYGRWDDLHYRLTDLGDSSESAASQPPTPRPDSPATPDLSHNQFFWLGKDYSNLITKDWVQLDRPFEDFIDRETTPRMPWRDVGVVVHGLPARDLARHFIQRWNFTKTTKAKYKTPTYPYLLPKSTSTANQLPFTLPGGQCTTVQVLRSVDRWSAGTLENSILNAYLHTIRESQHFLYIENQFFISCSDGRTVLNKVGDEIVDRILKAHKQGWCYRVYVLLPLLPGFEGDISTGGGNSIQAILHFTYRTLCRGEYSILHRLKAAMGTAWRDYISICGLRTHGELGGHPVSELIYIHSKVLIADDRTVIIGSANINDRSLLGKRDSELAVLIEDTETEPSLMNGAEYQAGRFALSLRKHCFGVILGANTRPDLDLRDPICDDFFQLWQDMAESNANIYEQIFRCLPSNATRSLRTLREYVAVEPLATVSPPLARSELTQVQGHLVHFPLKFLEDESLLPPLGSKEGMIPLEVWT

PldA, sequence (Q9HYC2 1-1099): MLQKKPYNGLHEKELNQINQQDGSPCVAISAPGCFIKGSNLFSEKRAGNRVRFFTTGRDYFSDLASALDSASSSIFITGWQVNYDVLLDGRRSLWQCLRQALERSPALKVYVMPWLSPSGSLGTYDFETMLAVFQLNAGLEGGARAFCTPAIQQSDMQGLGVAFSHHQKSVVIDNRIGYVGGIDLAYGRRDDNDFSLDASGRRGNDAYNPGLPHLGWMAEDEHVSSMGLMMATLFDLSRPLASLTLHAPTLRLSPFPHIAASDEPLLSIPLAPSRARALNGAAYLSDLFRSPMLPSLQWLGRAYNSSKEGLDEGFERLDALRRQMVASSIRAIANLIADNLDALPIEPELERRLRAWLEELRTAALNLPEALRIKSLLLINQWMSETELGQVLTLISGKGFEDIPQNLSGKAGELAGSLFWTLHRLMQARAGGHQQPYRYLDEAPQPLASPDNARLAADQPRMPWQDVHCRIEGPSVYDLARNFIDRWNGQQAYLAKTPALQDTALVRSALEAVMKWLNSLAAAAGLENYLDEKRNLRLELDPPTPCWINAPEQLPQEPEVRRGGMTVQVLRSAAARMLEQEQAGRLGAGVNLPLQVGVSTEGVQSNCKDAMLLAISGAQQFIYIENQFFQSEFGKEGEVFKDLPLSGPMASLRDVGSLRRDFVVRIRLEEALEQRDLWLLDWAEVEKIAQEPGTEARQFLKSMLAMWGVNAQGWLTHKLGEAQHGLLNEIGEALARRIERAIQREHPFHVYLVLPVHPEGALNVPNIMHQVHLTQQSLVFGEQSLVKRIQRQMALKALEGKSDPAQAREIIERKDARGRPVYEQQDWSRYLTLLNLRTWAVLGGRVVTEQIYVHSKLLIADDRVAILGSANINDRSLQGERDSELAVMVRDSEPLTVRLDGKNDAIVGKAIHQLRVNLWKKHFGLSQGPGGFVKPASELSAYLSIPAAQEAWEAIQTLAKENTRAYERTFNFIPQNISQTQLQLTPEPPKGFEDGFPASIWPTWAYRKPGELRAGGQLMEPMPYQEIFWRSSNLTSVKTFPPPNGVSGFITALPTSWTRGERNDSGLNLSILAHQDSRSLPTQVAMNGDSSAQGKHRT
recombinant human NAPE-PLD, sequence (Q6IQ20 whole entry): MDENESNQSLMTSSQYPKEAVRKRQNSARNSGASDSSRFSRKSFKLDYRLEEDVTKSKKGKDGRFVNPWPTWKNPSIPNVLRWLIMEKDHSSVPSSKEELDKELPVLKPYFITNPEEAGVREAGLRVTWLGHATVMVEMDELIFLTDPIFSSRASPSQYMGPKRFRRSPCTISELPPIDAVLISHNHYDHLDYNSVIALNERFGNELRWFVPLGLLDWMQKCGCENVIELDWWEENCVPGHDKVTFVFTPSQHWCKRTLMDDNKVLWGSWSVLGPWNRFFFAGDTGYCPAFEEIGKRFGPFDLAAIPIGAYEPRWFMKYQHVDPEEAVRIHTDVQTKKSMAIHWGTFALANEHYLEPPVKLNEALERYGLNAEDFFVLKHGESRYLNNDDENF

SMILES	inhibition of NAPE-PLD activity, single point [1]	fold more potent at PldA than inhibitors 2, 3 and 1 (PldA)	IC50 (PLD1 [2]) [µM]	PLD1 IC50 (PLD1 [3])	PLD2 IC50 (PLD2)
O=C(c1ccc(OCCN2CCCCC2)cc1)c1c(-c2ccc(O)cc2)sc2cc(O)ccc12 [Compound 7, raloxifene]	not to inhibit	5- to 10 fold			
CC/C(=C(\c1ccccc1)c1ccc(OCCN(C)C)cc1)c1ccccc1 [Compound 8, tamoxifen]			> 20	no effect	stimulated
